Reference: the NIST ThermoML archive (doi:10.1016/j.jct.2018.09.037)
Values joined by “and” are separate entries in the source; they are usually repeats but may differ in a detail not shown here. Equal entries are not always repeated. Numbers after ± are expanded uncertainties.

Legend:
[1] = 100 kPa, Liquid, Electromagnetic levitation / mass taken directly, volume taken from sample image
[2] = xn = mol fraction of the nth substance listed; conditions: 100 kPa, Liquid, Electromagnetic levitation / mass taken directly, volume taken from sample image

[Cu] [copper]
mass density ([1]; 1371 K): 7884 ± 110 kg/m3 | mass density ([1]; 1385 K): 7849 ± 110 kg/m3 | mass density ([1]; 1400 K): 7875 ± 120 kg/m3 | mass density ([1]; 1432 K): 7821 ± 120 kg/m3 | mass density ([1]; 1435 K): 7819 ± 120 kg/m3 | mass density ([1]; 1437 K): 7806 ± 120 kg/m3 | mass density ([1]; 1441 K): 7827 ± 120 kg/m3 | mass density ([1]; 1456 K): 7799 ± 120 kg/m3 | mass density ([1]; 1460 K): 7828 ± 120 kg/m3 | mass density ([1]; 1461 K): 7826 ± 120 kg/m3 | mass density ([1]; 1489 K): 7770 ± 120 kg/m3 | mass density ([1]; 1507 K): 7792 ± 120 kg/m3 | mass density ([1]; 1510 K): 7755 ± 120 kg/m3 | mass density ([1]; 1578 K): 7716 ± 120 kg/m3 | mass density ([1]; 1624 K): 7673 ± 120 kg/m3 | mass density ([1]; 1625 K): 7665 ± 120 kg/m3 | mass density ([1]; 1679 K): 7628 ± 120 kg/m3

[Pd] [palladium] + [Ni]
mass density ([2]; 1474 K, x1 = 0.25): 8842 ± 260 kg/m3 | mass density ([2]; 1480 K, x1 = 0.5): 9527 ± 500 kg/m3 | mass density ([2]; 1488 K, x1 = 0.5): 9518 ± 500 kg/m3 | mass density ([2]; 1510 K, x1 = 0.25): 8793 ± 260 kg/m3 | mass density ([2]; 1513 K, x1 = 0.5): 9495 ± 500 kg/m3 | mass density ([2]; 1549 K, x1 = 0.5): 9457 ± 490 kg/m3 and 9456 ± 490 kg/m3 | mass density ([2]; 1551 K, x1 = 0.25): 8757 ± 260 kg/m3 | mass density ([2]; 1563 K, x1 = 0.75): 10175 ± 300 kg/m3 | mass density ([2]; 1586 K, x1 = 0.5): 9422 ± 490 kg/m3 | mass density ([2]; 1589 K, x1 = 0.75): 10157 ± 300 kg/m3 | mass density ([2]; 1598 K, x1 = 0.75): 10153 ± 300 kg/m3 | mass density ([2]; 1611 K, x1 = 0.25): 8707 ± 250 kg/m3 | mass density ([2]; 1619 K, x1 = 0.75): 10117 ± 300 kg/m3 | mass density ([2]; 1630 K, x1 = 0.5): 9386 ± 490 kg/m3 | mass density ([2]; 1653 K, x1 = 0.75): 10089 ± 300 kg/m3 | mass density ([2]; 1668 K, x1 = 0.25): 8661 ± 250 kg/m3 | mass density ([2]; 1695 K, x1 = 0.5): 9341 ± 490 kg/m3 | mass density ([2]; 1701 K, x1 = 0.75): 10023 ± 300 kg/m3 | mass density ([2]; 1757 K, x1 = 0.25): 8586 ± 250 kg/m3 | mass density ([2]; 1770 K, x1 = 0.5): 9275 ± 490 kg/m3 | mass density ([2]; 1774 K, x1 = 0.75): 9966 ± 300 kg/m3 | mass density ([2]; 1790 K, x1 = 1): 10670 ± 170 kg/m3 | mass density ([2]; 1795 K, x1 = 1): 10672 ± 170 kg/m3 | mass density ([2]; 1796 K, x1 = 1): 10652 ± 170 kg/m3 | mass density ([2]; 1802 K, x1 = 1): 10686 ± 170 kg/m3 | mass density ([2]; 1809 K, x1 = 1): 10670 ± 170 kg/m3 | mass density ([2]; 1820 K, x1 = 1): 10677 ± 180 kg/m3 | mass density ([2]; 1831 K, x1 = 1): 10627 ± 180 kg/m3 | mass density ([2]; 1835 K, x1 = 0.75): 9929 ± 300 kg/m3 | mass density ([2]; 1843 K, x1 = 1): 10654 ± 180 kg/m3 | mass density ([2]; 1856 K, x1 = 1): 10601 ± 180 kg/m3 | mass density ([2]; 1859 K, x1 = 0.5): 9186 ± 480 kg/m3 | mass density ([2]; 1870 K, x1 = 0.25): 8503 ± 250 kg/m3 | mass density ([2]; 1878 K, x1 = 1): 10558 ± 180 kg/m3 | mass density ([2]; 1889 K, x1 = 1): 10592 ± 180 kg/m3 | mass density ([2]; 1890 K, x1 = 1): 10575 ± 180 kg/m3 | mass density ([2]; 1905 K, x1 = 0.75): 9819 ± 290 kg/m3 | mass density ([2]; 1917 K, x1 = 1): 10529 ± 180 kg/m3 | mass density ([2]; 1935 K, x1 = 1): 10478 ± 180 kg/m3 | mass density ([2]; 1951 K, x1 = 1): 10465 ± 180 kg/m3

[Pd] [palladium]
mass density ([1]; 1790 K): 10670 ± 170 kg/m3 | mass density ([1]; 1795 K): 10672 ± 170 kg/m3 | mass density ([1]; 1796 K): 10652 ± 170 kg/m3 | mass density ([1]; 1802 K): 10686 ± 170 kg/m3 | mass density ([1]; 1809 K): 10670 ± 170 kg/m3 | mass density ([1]; 1820 K): 10677 ± 180 kg/m3 | mass density ([1]; 1831 K): 10627 ± 180 kg/m3 | mass density ([1]; 1843 K): 10654 ± 180 kg/m3 | mass density ([1]; 1856 K): 10601 ± 180 kg/m3 | mass density ([1]; 1878 K): 10558 ± 180 kg/m3 | mass density ([1]; 1889 K): 10592 ± 180 kg/m3 | mass density ([1]; 1890 K): 10575 ± 180 kg/m3 | mass density ([1]; 1917 K): 10529 ± 180 kg/m3 | mass density ([1]; 1935 K): 10478 ± 180 kg/m3 | mass density ([1]; 1951 K): 10465 ± 180 kg/m3

[Pd] [palladium] + [Cu]
mass density ([2]; 1374 K, x1 = 0.25): 8847 ± 260 kg/m3 | mass density ([2]; 1421 K, x1 = 0.25): 8805 ± 260 kg/m3 | mass density ([2]; 1469 K, x1 = 0.25): 8762 ± 260 kg/m3 | mass density ([2]; 1523 K, x1 = 0.25): 8711 ± 260 kg/m3 | mass density ([2]; 1523 K, x1 = 0.5): 9468 ± 500 kg/m3 | mass density ([2]; 1532 K, x1 = 0.5): 9456 ± 500 kg/m3 | mass density ([2]; 1562 K, x1 = 0.5): 9412 ± 490 kg/m3 | mass density ([2]; 1590 K, x1 = 0.25): 8663 ± 260 kg/m3 | mass density ([2]; 1617 K, x1 = 0.5): 9371 ± 490 kg/m3 | mass density ([2]; 1653 K, x1 = 0.5): 9329 ± 490 kg/m3 | mass density ([2]; 1654 K, x1 = 0.75): 9987 ± 310 kg/m3 | mass density ([2]; 1662 K, x1 = 0.5): 9329 ± 490 kg/m3 | mass density ([2]; 1678 K, x1 = 0.75): 9964 ± 310 kg/m3 | mass density ([2]; 1685 K, x1 = 0.25): 8540 ± 260 kg/m3 | mass density ([2]; 1708 K, x1 = 0.75): 9936 ± 310 kg/m3 | mass density ([2]; 1718 K, x1 = 0.5): 9281 ± 490 kg/m3 | mass density ([2]; 1753 K, x1 = 0.75): 9886 ± 310 kg/m3 | mass density ([2]; 1766 K, x1 = 0.5): 9221 ± 480 kg/m3 | mass density ([2]; 1784 K, x1 = 0.75): 9853 ± 300 kg/m3 | mass density ([2]; 1790 K, x1 = 1): 10670 ± 170 kg/m3 | mass density ([2]; 1795 K, x1 = 1): 10672 ± 170 kg/m3 | mass density ([2]; 1796 K, x1 = 1): 10652 ± 170 kg/m3 | mass density ([2]; 1802 K, x1 = 1): 10686 ± 170 kg/m3 | mass density ([2]; 1805 K, x1 = 0.5): 9118 ± 480 kg/m3 | mass density ([2]; 1809 K, x1 = 1): 10670 ± 170 kg/m3 | mass density ([2]; 1820 K, x1 = 1): 10677 ± 180 kg/m3 | mass density ([2]; 1822 K, x1 = 0.75): 9805 ± 300 kg/m3 | mass density ([2]; 1831 K, x1 = 1): 10627 ± 180 kg/m3 | mass density ([2]; 1843 K, x1 = 1): 10654 ± 180 kg/m3 | mass density ([2]; 1856 K, x1 = 1): 10601 ± 180 kg/m3 | mass density ([2]; 1857 K, x1 = 0.75): 9728 ± 300 kg/m3 | mass density ([2]; 1878 K, x1 = 1): 10558 ± 180 kg/m3 | mass density ([2]; 1889 K, x1 = 1): 10592 ± 180 kg/m3 | mass density ([2]; 1890 K, x1 = 1): 10575 ± 180 kg/m3 | mass density ([2]; 1917 K, x1 = 1): 10529 ± 180 kg/m3 | mass density ([2]; 1935 K, x1 = 1): 10478 ± 180 kg/m3 | mass density ([2]; 1951 K, x1 = 1): 10465 ± 180 kg/m3

[Cu] [copper] + [Pd]
mass density ([2]; 1371 K, x2 = 0): 7884 ± 110 kg/m3 | mass density ([2]; 1385 K, x2 = 0): 7849 ± 110 kg/m3 | mass density ([2]; 1400 K, x2 = 0): 7875 ± 120 kg/m3 | mass density ([2]; 1432 K, x2 = 0): 7821 ± 120 kg/m3 | mass density ([2]; 1435 K, x2 = 0): 7819 ± 120 kg/m3 | mass density ([2]; 1437 K, x2 = 0): 7806 ± 120 kg/m3 | mass density ([2]; 1441 K, x2 = 0): 7827 ± 120 kg/m3 | mass density ([2]; 1456 K, x2 = 0): 7799 ± 120 kg/m3 | mass density ([2]; 1460 K, x2 = 0): 7828 ± 120 kg/m3 | mass density ([2]; 1461 K, x2 = 0): 7826 ± 120 kg/m3 | mass density ([2]; 1489 K, x2 = 0): 7770 ± 120 kg/m3 | mass density ([2]; 1507 K, x2 = 0): 7792 ± 120 kg/m3 | mass density ([2]; 1510 K, x2 = 0): 7755 ± 120 kg/m3 | mass density ([2]; 1578 K, x2 = 0): 7716 ± 120 kg/m3 | mass density ([2]; 1624 K, x2 = 0): 7673 ± 120 kg/m3 | mass density ([2]; 1625 K, x2 = 0): 7665 ± 120 kg/m3 | mass density ([2]; 1679 K, x2 = 0): 7628 ± 120 kg/m3
